In patent publication US7960389B2, “4(phenyl-piperazinyl-methyl) benzamide derivatives and their use for the treatment of pain or gastrointestinal disorders” (priority 2002, dated 2011) one finds IC50, EC50 and Emax data, which are given here for eleven compounds.

The term IC50 denotes the concentration that gives 50% inhibition. The term EC50 denotes the concentration giving half of the maximal effect. For orientation: Emax means the greatest response seen or fitted, relative to the assay's reference.

Assay [1] addresses T1, human δ receptors (Homo sapiens, UniProt P41143).
T1 construct: expressed in transfected cells; host or cells: human 293S (HEK-293S) cells
Description: Binding assay, membranes of human 293S cells expressing cloned human δ receptors.

Assay [2] addresses T1, human δ receptors. Description: Human δ receptor functional assay (GTP[γ]35S binding, HEK-293S cell membranes). It is filed as biochemical. The conditions noted are these: for Emax: relative to standard δ agonist SNC80, receptors expressed at higher levels, read-out: Human δ % EMax (high). As to the method: (§1) • A. Human 293S cells expressing cloned human κ, δ and μ receptors and neomycin resistance are grown in suspension at 37° C. and 5% CO2 in shaker flasks containing calcium-free DMEM10% FBS, 5% BCS, 0.1% Pluronic F-68, and 600 μg/ml geneticin. • B. Rat brains are weighed and rinsed in ice-cold PBS (containing 2.5 mM EDTA, pH 7.4). The brains are homogenized with a polytron for 30 sec (rat) in ice-cold lysis buffer (50 mM Tris, pH 7.0, 2.5 mM EDTA, with phenylmethylsulfonyl fluoride added just prior use to […] from a 0.5M stock in DMSO:ethanol). Membrane Preparation
Cells are pelleted and resuspended in lysis buffer (50 mM Tris, pH 7.0, 2.5 mM EDTA, with PMSF added just prior to use to 0.1 mM from a 0.1 M stock in ethanol), incubated on ice for 15 min, then homogenized with a polytron for 30 sec. The suspension is spun at 1000 g (max) for 10 min at 4° C. The supernatant is saved on ice and the pellets resuspended and spun as before. The supernatants from both spins are combined and spun at 46,000 g(max) for 30 min. The pellets are resuspended in cold Tris buffer (50 mM Tris/Cl, pH 7.0) and spun again. The final pellets are resuspended in membrane buffer (50 mM Tris, 0.32 M sucrose, pH 7.0). Aliquots (1 ml) in polypropylene tubes are frozen in dry ice/ethanol and stored at −70° C. until use. The protein concentrations are determined by a modified Lowry assay with sodium dodecyl sulfate.
(§2) The agonist activity of the compounds is measured by determining the degree to which the compounds receptor complex activates the binding of GTP to G-proteins to which the receptors are coupled. In the GTP binding assay, GTP[γ]^35S is combined with test compounds and membranes from HEK-293S cells expressing the cloned human opioid receptors or from homogenised rat and mouse brain. Agonists stimulate GTP[γ]^35S binding in these membranes. The EC50 and Emax values of compounds are determined from dose-response curves. Right shifts of the dose response curve by the delta antagonist naltrindole are performed to verify that agonist activity is mediated through delta receptors. For human δ receptor functional assays, EC50 (low) is measured when the human δ receptors used in the assay were expressed at lower levels in comparison with those used in determining EC50 (high). The Emax values were determined in relation to the standard δ agonist SNC80, i.e., higher than 100% is a compound that have better efficacy than SNC80.
In general terms: GTPγS is a poorly hydrolysed GTP analogue; its binding reports G protein activation.

The target in assay [3] is T2, δ receptors in rat brain membranes (Rattus norvegicus, UniProt P33533).
T2 construct: Rat brain membranes are thawed at 37° C; from tissue; host or cells: rat brain homogenate membranes
Description: Rat brain functional assay (GTPγ35S binding, rat brain membranes). It counts as biochemical. The conditions noted are these: Table 1, relative to SNC80. On the procedure:
as §1, §2
Rat brain membranes are thawed at 37° C., passed 3 times through a 25-gauge blunt-end needle and diluted in the GTPγS binding (50 mM Hepes, 20 mM NaOH, 100 mM NaCl, 1 mM EDTA, 5 mM MgCl2, pH 7.4, Add fresh: 1 mM DTT, 0.1% BSA). 120 μM GDP final is added membranes dilutions. […] The basal and maximal stimulated binding are determined in absence and presence of 3 μM SNC-80

In another assay the target is T3, human κ receptors (Homo sapiens, UniProt P41145).
T3 construct: expressed in transfected cells; host or cells: human 293S cells
Nature of the assay: Binding assay, membranes of human 293S cells expressing cloned human κ receptors.

Where two headings read alike, the source gives them in different places.

T1 sequence (P41143 whole entry): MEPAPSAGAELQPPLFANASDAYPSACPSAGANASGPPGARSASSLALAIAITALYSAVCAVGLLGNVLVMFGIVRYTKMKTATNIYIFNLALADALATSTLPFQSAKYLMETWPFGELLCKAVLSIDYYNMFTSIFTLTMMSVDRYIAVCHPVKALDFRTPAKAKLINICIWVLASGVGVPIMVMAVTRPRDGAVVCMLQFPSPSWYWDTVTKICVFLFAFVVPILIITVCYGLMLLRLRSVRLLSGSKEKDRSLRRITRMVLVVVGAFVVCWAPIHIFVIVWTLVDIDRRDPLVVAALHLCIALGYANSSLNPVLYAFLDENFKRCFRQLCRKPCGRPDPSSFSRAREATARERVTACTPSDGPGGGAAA
T2 sequence (P33533 whole entry): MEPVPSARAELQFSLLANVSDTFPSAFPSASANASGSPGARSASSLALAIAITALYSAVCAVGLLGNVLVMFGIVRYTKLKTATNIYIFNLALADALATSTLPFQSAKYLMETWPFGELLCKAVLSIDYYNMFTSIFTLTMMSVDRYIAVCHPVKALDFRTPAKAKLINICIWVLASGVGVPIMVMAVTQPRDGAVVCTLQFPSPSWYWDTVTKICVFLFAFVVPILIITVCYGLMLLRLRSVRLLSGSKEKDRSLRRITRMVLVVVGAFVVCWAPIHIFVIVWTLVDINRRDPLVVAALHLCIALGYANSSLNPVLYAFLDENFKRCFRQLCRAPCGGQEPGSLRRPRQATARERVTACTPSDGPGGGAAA
T3 sequence (P41145 whole entry): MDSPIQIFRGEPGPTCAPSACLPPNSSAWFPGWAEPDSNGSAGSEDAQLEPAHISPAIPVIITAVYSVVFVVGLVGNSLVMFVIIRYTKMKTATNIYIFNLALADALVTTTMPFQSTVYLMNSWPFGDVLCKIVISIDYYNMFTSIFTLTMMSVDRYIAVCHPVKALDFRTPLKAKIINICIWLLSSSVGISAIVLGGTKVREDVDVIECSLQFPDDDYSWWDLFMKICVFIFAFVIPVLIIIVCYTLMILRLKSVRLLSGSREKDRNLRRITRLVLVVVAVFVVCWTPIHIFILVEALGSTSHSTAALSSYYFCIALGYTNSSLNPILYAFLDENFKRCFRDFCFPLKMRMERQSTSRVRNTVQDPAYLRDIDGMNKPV

Turning to `CCN(CC)C(=O)c1ccc([C@H](c2cccc(NC(=O)OC)c2)N2CCN(Cc3ccccc3)CC2)cc1` [Compound 1, R-Methyl 3-[(4-[(diethylamino)carbonyl]phenyl)(4-benzyl-piperazin-1-yl)methyl]phenylcarbamate], the IC50 on human δ receptors [1] fell in the range of 0.25 to 0.74 nM. The EC50 on human δ receptors [2] was 0.55 to 1.93 nM. The Emax at human δ receptors [2] (Table 1) lay in the range of 89 to 102%; in assay [3], 135 to 170%.

In turn, `CCN(CC)C(=O)c1ccc([C@H](c2cccc(NC(=O)OC)c2)N2CCN(Cc3cccs3)CC2)cc1` [Compound 4, R-Methyl 3-{{4-[(diethylamino)carbonyl]phenyl}[4-(thien-2-ylmethyl)piperazin-1-yl]methyl}phenylcarbamate] gave an IC50 at human δ receptors [1] of 0.25 to 0.74 nM. This compound also registered an EC50 on human δ receptors [2] of 0.55 to 1.93 nM. Also, the values for the Emax (on human δ receptors [2] (Table 1); in assay [3]) were 89 to 102% and 135 to 170%, respectively.

At human δ receptors [1], `CCN(CC)C(=O)c1ccc([C@@H](c2cccc(NC(=O)OC)c2)N2CCN(Cc3ccsc3)CC2)cc1` [Compound 5, S-Methyl 3-{{4-[(diethylamino)carbonyl]phenyl}[4-(thien-3-ylmethyl)piperazin-1-yl]methyl}phenylcarbamate] returned an IC50 of 0.25 to 0.74 nM. On human δ receptors [2], the EC50 was in the range of 0.55 to 1.93 nM. Besides, the Emax at human δ receptors [2] (Table 1) is 89 to 102%; in assay [3], 135 to 170%.

`CCN(CC)C(=O)c1ccc([C@H](c2cccc(NC(=O)OC)c2)N2CCN(Cc3ccco3)CC2)cc1` [Compound 8, R-Methyl 3-{{4-[(diethylamino)carbonyl]phenyl}[4-(2-furylmethyl)piperazin-1-yl]methyl}phenylcarbamate]: the IC50 on human δ receptors [1] is 0.25 to 0.74 nM. The same compound had a concentration for a half-maximal effect (EC50) on human δ receptors [2] of 0.55 to 1.93 nM. The Emax lay in the range of 89 to 102% on human δ receptors [2] (Table 1) and 135 to 170% in assay [3].

Consider `CCN(CC)C(=O)c1ccc([C@@H](c2cccc(NC(=O)OC)c2)N2CCN(Cc3cccs3)CC2)cc1` [Compound 3, S-Methyl 3-{{4-[(diethylamino)carbonyl]phenyl}[4-(thien-2-ylmethyl)piperazin-1-yl]methyl}phenylcarbamate], for which the IC50 at human δ receptors [1] is 0.25 to 0.74 nM. This compound also yielded an EC50 at human δ receptors [2] of 0.55 to 1.93 nM. Also, the Emax on human δ receptors [2] (Table 1) fell in the range of 89 to 102%; in assay [3], 135 to 170%.

As for `CCN(CC)C(=O)c1ccc([C@@H](c2cccc(NC(=O)OC)c2)N2CCN(Cc3ccoc3)CC2)cc1` [Compound 9], the IC50 on human δ receptors [1] is 0.25 to 0.74 nM. At human δ receptors [2], this compound yielded an EC50 of 0.55 to 1.93 nM. In addition, the results for the Emax (at human δ receptors [2] (Table 1); in assay [3]) were 89 to 102% and 135 to 170%, respectively.

With `CCN(CC)C(=O)c1ccc([C@@H](c2cccc(NC(=O)OC)c2)N2CCN(Cc3ccccc3)CC2)cc1` [Compound 2, S-Methyl 3-[(4-[(diethylamino)carbonyl]phenyl)(4-benzyl-piperazin-1-yl)methyl]phenylcarbamate], the IC50 at human δ receptors [1] was 0.25 to 0.74 nM. In addition, at human δ receptors [2], the 50% effective concentration (EC50) lay within 0.55 to 1.93 nM. The figures for the Emax (on human δ receptors [2] (Table 1); in assay [3]) were 89 to 102% and 135 to 170%, respectively.

On to `CCN(CC)C(=O)c1ccc([C@H](c2cccc(NC(=O)OC)c2)N2CCN(Cc3ncc[nH]3)CC2)cc1` [Compound 11, R-Methyl 3-{{4-[(diethylamino)carbonyl]phenyl}[4-(1H-imidazol-2-ylmethyl)piperazin-1-yl]methyl}phenylcarbamate], for which the IC50 on human δ receptors [1] (Table 1, displacement of radioactive δ receptor ligand, read-out: Human δ IC50) lay within 0.25 to 0.74 nM; at human κ receptors, 247 to 1640 nM. Further, at human δ receptors [2] (Table 1, human δ receptors expressed at higher levels, read-out: Human δ EC50 (high)), the EC50 fell in the range of 0.55 to 1.93 nM. The Emax on human δ receptors [2] (Table 1) was in the range of 89 to 102%; in assay [3], 135 to 170%.

`CCN(CC)C(=O)c1ccc([C@H](c2cccc(NC(=O)OC)c2)N2CCN(Cc3ccoc3)CC2)cc1` [Compound 10, R-Methyl 3-{{4-[(diethylamino)carbonyl]phenyl}[4-(3-furylmethyl)piperazin-1-yl]methyl}phenylcarbamate] gave an IC50 on human δ receptors [1] of 0.25 to 0.74 nM. In addition, the EC50 on human δ receptors [2] was in the range of 0.55 to 1.93 nM. Also, the figures for the Emax (at human δ receptors [2] (Table 1); in assay [3]) were 89 to 102% and 135 to 170%, respectively.

On to `CCN(CC)C(=O)c1ccc([C@H](c2cccc(NC(=O)OC)c2)N2CCN(Cc3ccsc3)CC2)cc1` [Compound 6, R-Methyl 3-{{4-[(diethylamino)carbonyl]phenyl}[4-(thien-3-ylmethyl)piperazin-1-yl]methyl}phenylcarbamate], for which the IC50 at human δ receptors [1] was 0.25 to 0.74 nM. The same compound returned an EC50 at human δ receptors [2] of 0.55 to 1.93 nM. The Emax fell in the range of 89 to 102% at human δ receptors [2] (Table 1) and 135 to 170% in assay [3].

Turning to `CCN(CC)C(=O)c1ccc([C@@H](c2cccc(NC(=O)OC)c2)N2CCN(Cc3ccco3)CC2)cc1` [Compound 7, S-Methyl 3-{{4-[(diethylamino)carbonyl]phenyl}[4-(2-furylmethyl)piperazin-1-yl]methyl}phenylcarbamate], the IC50 at human δ receptors [1] was in the range of 0.25 to 0.74 nM. This compound displayed an EC50 on human δ receptors [2] of 0.55 to 1.93 nM. Besides, the Emax fell in the range of 89 to 102% at human δ receptors [2] (Table 1) and 135 to 170% in assay [3].
